Laboratory results as given in PubChem BioAssay (NCI).
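All cell lines were grown in 96-well plates and treated with compound for 48 hours. TGI: concentration producing complete growth inhibition.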

How the values were obtained:
Test in all cases: NCI tumour cell line growth inhibition, 48 h
786-0 renal = test system: 786-0 renal
A498 renal = test system: A498 renal
A549 NSCLC = test system: A549 NSCLC
ACHN renal = test system: ACHN renal
CAKI-1 renal = test system: CAKI-1 renal
CCRF-CEM leukemia = test system: CCRF-CEM leukemia
COLO 205 colon = test system: COLO 205 colon
DLD-1 colon = test system: DLD-1 colon
DMS 114 small cell lung = test system: DMS 114 small cell lung
DMS 273 small cell lung = test system: DMS 273 small cell lung
EKVX NSCLC = test system: EKVX NSCLC
HCC-2998 colon = test system: HCC-2998 colon
HCT-15 colon = test system: HCT-15 colon
HL-60(TB) leukemia = test system: HL-60(TB) leukemia
HOP-18 NSCLC = test system: HOP-18 NSCLC
HOP-62 NSCLC = test system: HOP-62 NSCLC
HOP-92 NSCLC = test system: HOP-92 NSCLC
HT29 colon = test system: HT29 colon
IGROV1 ovarian = test system: IGROV1 ovarian
K-562 leukemia = test system: K-562 leukemia
KM12 colon = test system: KM12 colon
KM20L2 colon = test system: KM20L2 colon
LOX IMVI melanoma = test system: LOX IMVI melanoma
LXFL 529 NSCLC = test system: LXFL 529 NSCLC
M14 melanoma = test system: M14 melanoma
M19-MEL melanoma = test system: M19-MEL melanoma
MALME-3M melanoma = test system: MALME-3M melanoma
MOLT-4 leukemia = test system: MOLT-4 leukemia
NCI-H226 lung = test system: NCI-H226 lung
NCI-H23 lung = test system: NCI-H23 lung
NCI-H460 lung = test system: NCI-H460 lung
NCI-H522 lung = test system: NCI-H522 lung
OVCAR-3 ovarian = test system: OVCAR-3 ovarian
OVCAR-4 ovarian = test system: OVCAR-4 ovarian
OVCAR-5 ovarian = test system: OVCAR-5 ovarian
OVCAR-8 ovarian = test system: OVCAR-8 ovarian
RPMI-8226 leukemia = test system: RPMI-8226 leukemia
RXF 393 renal = test system: RXF 393 renal
SF-268 CNS = test system: SF-268 CNS
SF-295 CNS = test system: SF-295 CNS
SF-539 CNS = test system: SF-539 CNS
SK-MEL-2 melanoma = test system: SK-MEL-2 melanoma
SK-MEL-28 melanoma = test system: SK-MEL-28 melanoma
SK-MEL-5 melanoma = test system: SK-MEL-5 melanoma
SK-OV-3 ovarian = test system: SK-OV-3 ovarian
SN12C renal = test system: SN12C renal
SNB-19 CNS = test system: SNB-19 CNS
SNB-75 CNS = test system: SNB-75 CNS
SNB-78 CNS = test system: SNB-78 CNS
SR leukemia = test system: SR leukemia
TK-10 renal = test system: TK-10 renal
U251 CNS = test system: U251 CNS
UACC-257 melanoma = test system: UACC-257 melanoma
UACC-62 melanoma = test system: UACC-62 melanoma
UO-31 renal = test system: UO-31 renal
XF 498 CNS = test system: XF 498 CNS
HCT-116 colon = test system: HCT-116 colon
RXF-631 renal = test system: RXF-631 renal
SW-620 colon = test system: SW-620 colon

For `CC(C)(C)NNC(=O)/C(=C/c1ccc([N+](=O)[O-])cc1)NC(=O)c1ccccc1`, the TGI (786-0 renal) was > 100 µM, the TGI (A498 renal) was > 100 µM and the TGI (A549 NSCLC) was > 100 µM. For the same compound, the TGI (ACHN renal) was > 100 µM, the TGI (CAKI-1 renal) was > 100 µM and the TGI (CCRF-CEM leukemia) was 99.1 µM. The TGI (COLO 205 colon) was 79.2 µM, the TGI (DLD-1 colon) was > 100 µM and the TGI (DMS 114 small cell lung) was 35.9 µM. The TGI (DMS 273 small cell lung) was 80 µM, the TGI (EKVX NSCLC) was > 100 µM and the TGI (HCC-2998 colon) was > 100 µM. For the same compound, the TGI (HCT-15 colon) was > 100 µM, the TGI (HL-60(TB) leukemia) was > 100 µM and the TGI (HOP-18 NSCLC) was > 100 µM. The TGI (HOP-62 NSCLC) was > 100 µM, the TGI (HOP-92 NSCLC) was > 100 µM and the TGI (HT29 colon) was > 100 µM. For the same compound, the TGI (IGROV1 ovarian) was > 100 µM, the TGI (K-562 leukemia) was > 100 µM and the TGI (KM12 colon) was > 100 µM. The TGI (KM20L2 colon) was > 100 µM, the TGI (LOX IMVI melanoma) was 37.2 µM and the TGI (LXFL 529 NSCLC) was > 100 µM. For the same compound, the TGI (M14 melanoma) was > 100 µM, the TGI (M19-MEL melanoma) was > 100 µM and the TGI (MALME-3M melanoma) was > 100 µM. For the same compound, the TGI (MOLT-4 leukemia) was > 100 µM, the TGI (NCI-H226 lung) was 96.5 µM and the TGI (NCI-H23 lung) was > 100 µM. The TGI (NCI-H460 lung) was > 100 µM, the TGI (NCI-H522 lung) was 73.3 µM and the TGI (OVCAR-3 ovarian) was > 100 µM. The TGI (OVCAR-4 ovarian) was > 100 µM, the TGI (OVCAR-5 ovarian) was > 100 µM and the TGI (OVCAR-8 ovarian) was > 100 µM. For the same compound, the TGI (RPMI-8226 leukemia) was > 100 µM, the TGI (RXF 393 renal) was > 100 µM and the TGI (SF-268 CNS) was > 100 µM. For the same compound, the TGI (SF-295 CNS) was > 100 µM, the TGI (SF-539 CNS) was > 100 µM and the TGI (SK-MEL-2 melanoma) was > 100 µM. The TGI (SK-MEL-28 melanoma) was > 100 µM, the TGI (SK-MEL-5 melanoma) was > 100 µM and the TGI (SK-OV-3 ovarian) was > 100 µM. The TGI (SN12C renal) was > 100 µM, the TGI (SNB-19 CNS) was > 100 µM and the TGI (SNB-75 CNS) was > 100 µM. For the same compound, the TGI (SNB-78 CNS) was > 100 µM, the TGI (SR leukemia) was 46.4 µM and the TGI (TK-10 renal) was > 100 µM. For the same compound, the TGI (U251 CNS) was > 100 µM, the TGI (UACC-257 melanoma) was > 100 µM and the TGI (UACC-62 melanoma) was > 100 µM. For the same compound, the TGI (UO-31 renal) was > 100 µM and the TGI (XF 498 CNS) was > 100 µM.
In the case of `O=C(/C=C/c1ccc(OCCCOc2ccc(/C=C/C(=O)c3ccccc3)cc2)cc1)c1ccccc1`, the TGI (786-0 renal) is reported as > 100 µM, the TGI (A498 renal) is reported as > 100 µM and the TGI (A549 NSCLC) is reported as > 100 µM. For the same compound, the TGI (ACHN renal) was > 100 µM, the TGI (CCRF-CEM leukemia) was > 100 µM and the TGI (COLO 205 colon) was > 100 µM. For the same compound, the TGI (DLD-1 colon) was > 100 µM, the TGI (DMS 114 small cell lung) was > 100 µM and the TGI (DMS 273 small cell lung) was > 100 µM. For the same compound, the TGI (EKVX NSCLC) was > 100 µM, the TGI (HCC-2998 colon) was > 100 µM and the TGI (HCT-116 colon) was > 100 µM. The TGI (HCT-15 colon) was > 100 µM, the TGI (HL-60(TB) leukemia) was > 100 µM and the TGI (HOP-62 NSCLC) was > 100 µM. For the same compound, the TGI (HT29 colon) was > 100 µM, the TGI (IGROV1 ovarian) was > 100 µM and the TGI (K-562 leukemia) was > 100 µM. For the same compound, the TGI (KM20L2 colon) was > 100 µM, the TGI (LOX IMVI melanoma) was > 100 µM and the TGI (LXFL 529 NSCLC) was > 100 µM. The TGI (M14 melanoma) was > 100 µM, the TGI (M19-MEL melanoma) was > 100 µM and the TGI (MALME-3M melanoma) was > 100 µM. For the same compound, the TGI (MOLT-4 leukemia) was > 100 µM, the TGI (NCI-H226 lung) was > 100 µM and the TGI (NCI-H23 lung) was > 100 µM. For the same compound, the TGI (NCI-H460 lung) was > 100 µM, the TGI (OVCAR-3 ovarian) was > 100 µM and the TGI (OVCAR-4 ovarian) was > 100 µM. The TGI (OVCAR-8 ovarian) was > 100 µM, the TGI (RPMI-8226 leukemia) was > 100 µM and the TGI (RXF 393 renal) was > 100 µM. For the same compound, the TGI (RXF-631 renal) was > 100 µM, the TGI (SF-268 CNS) was > 100 µM and the TGI (SF-295 CNS) was > 100 µM. The TGI (SF-539 CNS) was > 100 µM, the TGI (SK-MEL-2 melanoma) was > 100 µM and the TGI (SK-MEL-28 melanoma) was > 100 µM. The TGI (SK-MEL-5 melanoma) was > 100 µM, the TGI (SN12C renal) was > 100 µM and the TGI (SNB-19 CNS) was > 100 µM. For the same compound, the TGI (SNB-75 CNS) was > 100 µM, the TGI (SR leukemia) was > 100 µM and the TGI (SW-620 colon) was > 100 µM. The TGI (TK-10 renal) was > 100 µM, the TGI (UACC-257 melanoma) was > 100 µM and the TGI (UACC-62 melanoma) was > 100 µM. For the same compound, the TGI (UO-31 renal) was > 100 µM.
